According to patent US11596649B2, “Composition in powder form comprising iron and probiotic bacteria” (NESTEC S.A., priority 2016, dated 2023):
Where two headings read alike, the source gives them in different places.

Key:
probiotic bacteria = experiment: Viability of probiotic bacteria with added iron source (general finding); type: cell-based; conditions: iron source in powder composition with probiotic bacteria, at reconstitution
[1] = in human; Hurrell, Iron Fortification of Foods, 1985; cited from earlier work
[2] = test system: Bifidobacterium longum (deposited as ATCC BAA-999); conditions: 5, 25 and 50 mg Fe2+ per 100 g maltodextrin model composition, FIG. 2
Method: The Samples were produced as follows. The maltodextrin, the dried probiotic powder and the iron source were added together in a 500 mL plastic beaker and mixed for 5 minutes at 34 rpm using a Turbula® T2F dry mixer (WAB, Switzerland). An amount of 25 g of freshly mixed sample was diluted 1/10 in an aqueous tryptone salt solution supplemented with anti-foaming agent at 37° C. After 5 minutes of homogenization using a Masticator® (IUL, Spain), decimal dilutions were performed. The appropriate dilution resulting in 30-300 colonies after incubation was then transferred to a petri dish and mixed with RCA agar according to the pour plate method. Once solidified the plates were incubated at 37° C. under anaerobic conditions. After 48 h of incubation the colonies present on the plates were counted.

[3] = test system: Lactobacillus rhamnosus (deposited as CGMCC 1.3724); conditions: 10 and 30 mg Fe2+ per 100 g maltodextrin model composition, FIG. 1
Method: (§1) The maltodextrin, the dried probiotic powder and the iron source were added together in a 500 mL plastic beaker and mixed for 5 minutes at 34 rpm using a Turbula® T2F dry mixer (WAB, Switzerland). An amount of 25 g of freshly mixed sample was diluted 1/10 in an aqueous tryptone salt solution supplemented with anti-foaming agent at 37° C. After 5 minutes of homogenization using a Masticator® (IUL, Spain), decimal dilutions were performed. The appropriate dilution resulting in 30-300 colonies after incubation was then transferred to a petri dish and mixed with MRS agar according to the pour plate method. Once solidified the plates were incubated at 37° C. under aerobic conditions. After 48 h of incubation the colonies present on the plates were counted.

[4] = test system: Lactobacillus rhamnosus (deposited as CGMCC 1.3724); conditions: FIG. 4; for loss of live L. rhamnosus in the reconstituted compositions: 10 and 30 mg Fe2+ per 100 g infant formula powder (Nestogen 1)
Method: An amount of 25 g of freshly mixed sample was diluted 1/10 in an aqueous tryptone salt solution supplemented with anti-foaming agent at 37° C. After 5 minutes of homogenization using a Masticator® (IUL, Spain), decimal dilutions were performed. The appropriate dilution resulting in 30-300 colonies after incubation was then transferred to a petri dish and mixed with MRS agar according to the pour plate method. Once solidified the plates were incubated at 37° C. under aerobic conditions. After 48 h of incubation the colonies present on the plates were counted.

[5] = test system: Bifidobacterium longum (deposited as ATCC BAA-999); conditions: FIG. 5; for loss of live Bifidobacterium longum in the reconstituted compositions: 25 and 50 mg Fe2+ per 100 g infant formula powder (Nestogen 1)
Method: The Samples were produced as follows. The infant formula powder, the dried probiotic powder and the iron source were added together in a 500 mL plastic beaker and mixed for 5 minutes at 34 rpm using a Turbula® T2F dry mixer (WAB, Switzerland). An amount of 25 g of freshly mixed sample was diluted 1/10 in an aqueous tryptone salt solution supplemented with anti-foaming agent at 37° C. After 5 minutes of homogenization using a Masticator® (IUL, Spain), decimal dilutions were performed. The appropriate dilution resulting in 30-300 colonies after incubation was then transferred to a petri dish and mixed with RCA agar according to the pour plate method. Once solidified the plates were incubated at 37° C. under anaerobic conditions. After 48 h of incubation the colonies present on the plates were counted.

[6] = test system: Lactobacillus paracasei (deposited as CNCM I-2116); experiment: Survival of Lactobacillus paracasei on reconstitution, maltodextrin model composition (Example 3, plate count); type: cell-based; conditions: 5, 25 and 50 mg Fe2+ per 100 g maltodextrin model composition, FIG. 3
Method: as §1

[7] = in rat; Hurrell, Iron Fortification of Foods, 1985; cited from earlier work

Compound	loss of viability of probiotic bacteria (probiotic bacteria)	average bioavailability [1]	loss of live Bifidobacterium longum in the reconstituted compositions [2]	loss of live L. rhamnosus in the reconstituted compositions [3]	loss of live L. rhamnosus in the reconstituted compositions [4]	loss of live Bifidobacterium longum in the reconstituted compositions [5]	loss of viable Bifidobacterium longum compared with dissolved ferrous sulphate in spray-dried form ([2]; all iron concentrations)	loss of live Lactobacillus paracasei in the reconstituted compositions [6]	loss of viable Lactobacillus paracasei compared with dissolved ferrous sulphate in spray-dried form ([6]; all iron concentrations)	loss of viable Lactobacillus rhamnosus compared with dissolved ferrous sulphate in spray-dried form ([3]; both iron concentrations)	loss of viable Lactobacillus rhamnosus compared with dissolved ferrous sulphate in spray-dried form ([4]; 10 and 30 mg Fe2+ per 100 g infant formula composition, both iron concentrations)	loss of viable Bifidobacterium longum compared with dissolved ferrous sulphate in spray-dried form ([5]; 25 and 50 mg Fe2+ per 100 g infant formula composition, all iron concentrations)	bioavailability [7]
O=C([O-])CC(O)(CC(=O)O)C(=O)[O-].[Fe+2] [ferrous citrate]	do not significantly impair	74%	–	–	–	–	–	–	–	–	–	–	–
O.O.O.O.O.O.O.O=S(=O)([O-])[O-].[Fe+2] [ferrous sulphate heptahydrate, reference compound]	significant loss	–	significant loss	significant loss	significant loss	significant loss	–	–	–	–	–	–	–
O.O=S(=O)([O-])[O-].[Fe+2] [ferrous sulphate monohydrate]	no significant loss	–	no significant loss	no significant loss	no significant loss	no significant loss	significantly lower	no significant loss	significantly lower	significantly lower	significantly lower	significantly lower	–
ferric citrate	do not significantly impair	31%	–	–	–	–	–	–	–	–	–	–	75%
